Results as given in the supplement of paper PMC10307832.

Legend:
Experiment in all cases: relative viability (nuclei count vs DMSO), 5 days (fraction); higher = more cells survive
[1] = compound: CNC(=O)c1cc(Oc2ccc(NC(=O)Nc3ccc(Cl)c(C(F)(F)F)c3)cc2)ccn1 [Sorafenib] + CC(=O)c1c(C)c2cnc(Nc3ccc(N4CCNCC4)cn3)nc2n(C2CCCC2)c1=O [Palbociclib] (partner 0.5 µM)
In short: (§1)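 Relative viability is defined as nuclei in treated wells over nuclei in vehicle wells. Duplicate plates were run and medians reported. Lung cancer cell lines in 1536-well plates were dosed by pin tool one day after seeding, with one drug or with a fixed anchor-drug dose plus five library-drug doses (not always all listed) in √10 steps, and nuclei were counted after 5 days.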

[2] = compound: CNC(=O)c1cc(Oc2ccc(NC(=O)Nc3ccc(Cl)c(C(F)(F)F)c3)cc2)ccn1 [Sorafenib] + CC(C)C[C@H](NC(=O)[C@H](Cc1ccccc1)NC(=O)c1cnccn1)B(O)O [Bortezomib] (partner 0.002 µM)
In short: as §1

[3] = compound: CNC(=O)c1cc(Oc2ccc(NC(=O)Nc3ccc(Cl)c(C(F)(F)F)c3)cc2)ccn1 [Sorafenib] + CC1(C)CCC(c2ccc(Cl)cc2)=C(CN2CCN(c3ccc(C(=O)NS(=O)(=O)c4ccc(N[C@H](CCN5CCOCC5)CSc5ccccc5)c(S(=O)(=O)C(F)(F)F)c4)cc3)CC2)C1 [Navitoclax] (partner 0.5 µM)
In short: as §1

[4] = compound: CNC(=O)c1cc(Oc2ccc(NC(=O)Nc3ccc(Cl)c(C(F)(F)F)c3)cc2)ccn1 [Sorafenib] + COc1cccc2cc(-c3nc([C@H]4CC[C@H](C(=O)O)CC4)n4ncnc(N)c34)[nH]c12 [OSI-027] (partner 0.5 µM)
In short: as §1

[5] = compound: CNC(=O)c1cc(Oc2ccc(NC(=O)Nc3ccc(Cl)c(C(F)(F)F)c3)cc2)ccn1 [Sorafenib] + Nc1ncn([C@H]2C[C@H](O)[C@@H](CO)O2)c(=O)n1 [Decitabine] (partner 2 µM)
In short: as §1

RERF-LC-KJ was tested, and the relative viability ([1]; first compound 0.08 µM) was 1.05, the relative viability ([1]; first compound 0.253 µM) was 0.961 and the relative viability ([1]; first compound 2.53 µM) was 1.03. The relative viability ([1]; first compound 8 µM) was 0.759, the relative viability ([2]; first compound 0.08 µM) was 1.12 and the relative viability ([2]; first compound 0.253 µM) was 0.992. The relative viability ([2]; first compound 2.53 µM) was 1.17, the relative viability ([2]; first compound 8 µM) was 0.992 and the relative viability ([3]; first compound 0.08 µM) was 0.932. For the same cell line, the relative viability ([3]; first compound 0.253 µM) was 1.11, the relative viability ([3]; first compound 2.53 µM) was 0.867 and the relative viability ([3]; first compound 8 µM) was 0.705. For the same cell line, the relative viability ([4]; first compound 0.08 µM) was 0.601, the relative viability ([4]; first compound 0.253 µM) was 0.502 and the relative viability ([4]; first compound 2.53 µM) was 0.649. It also gave a relative viability ([4]; first compound 8 µM) of 0.397, a relative viability ([5]; first compound 0.08 µM) of 0.74 and a relative viability ([5]; first compound 0.253 µM) of 0.673. It also gave a relative viability ([5]; first compound 2.53 µM) of 0.586 and a relative viability ([5]; first compound 8 µM) of 0.473.
SK-LU-1 showed a relative viability ([1]; first compound 0.08 µM) of 0.474, a relative viability ([1]; first compound 0.253 µM) of 0.372 and a relative viability ([1]; first compound 2.53 µM) of 0.362. For the same cell line, the relative viability ([1]; first compound 8 µM) was 0.326, the relative viability ([2]; first compound 0.08 µM) was 1.16 and the relative viability ([2]; first compound 0.253 µM) was 1.07. For the same cell line, the relative viability ([2]; first compound 2.53 µM) was 1.11, the relative viability ([2]; first compound 8 µM) was 0.735 and the relative viability ([3]; first compound 0.08 µM) was 0.926. For the same cell line, the relative viability ([3]; first compound 2.53 µM) was 0.729, the relative viability ([3]; first compound 8 µM) was 0.207 and the relative viability ([4]; first compound 0.08 µM) was 0.41. The relative viability ([4]; first compound 0.253 µM) was 0.283, the relative viability ([4]; first compound 2.53 µM) was 0.345 and the relative viability ([4]; first compound 8 µM) was 0.227. It also gave a relative viability ([5]; first compound 0.08 µM) of 0.605, a relative viability ([5]; first compound 0.253 µM) of 0.564 and a relative viability ([5]; first compound 2.53 µM) of 0.578. For the same cell line, the relative viability ([5]; first compound 8 µM) was 0.396.
SW 1573 gave a relative viability ([1]; first compound 0.08 µM) of 0.39, a relative viability ([1]; first compound 0.253 µM) of 0.363 and a relative viability ([1]; first compound 2.53 µM) of 0.417. It also gave a relative viability ([1]; first compound 8 µM) of 0.09, a relative viability ([2]; first compound 0.08 µM) of 1.22 and a relative viability ([2]; first compound 0.253 µM) of 1.05. It also gave a relative viability ([2]; first compound 2.53 µM) of 0.989, a relative viability ([2]; first compound 8 µM) of 0.286 and a relative viability ([3]; first compound 0.08 µM) of 1.1. The relative viability ([3]; first compound 0.253 µM) was 0.947, the relative viability ([3]; first compound 2.53 µM) was 0.983 and the relative viability ([3]; first compound 8 µM) was 0.689. For the same cell line, the relative viability ([4]; first compound 0.08 µM) was 0.79, the relative viability ([4]; first compound 0.253 µM) was 0.517 and the relative viability ([4]; first compound 2.53 µM) was 0.553. For the same cell line, the relative viability ([4]; first compound 8 µM) was 0.21, the relative viability ([5]; first compound 0.08 µM) was 0.57 and the relative viability ([5]; first compound 0.253 µM) was 0.511. For the same cell line, the relative viability ([5]; first compound 2.53 µM) was 0.408 and the relative viability ([5]; first compound 8 µM) was 0.182.
UMC-11 showed a relative viability ([1]; first compound 0.08 µM) of 0.284, a relative viability ([1]; first compound 0.253 µM) of 0.355 and a relative viability ([1]; first compound 2.53 µM) of 0.334. The relative viability ([1]; first compound 8 µM) was 0.188, the relative viability ([2]; first compound 0.08 µM) was 0.609 and the relative viability ([2]; first compound 0.253 µM) was 0.627. It also gave a relative viability ([2]; first compound 2.53 µM) of 0.702, a relative viability ([2]; first compound 8 µM) of 0.231 and a relative viability ([3]; first compound 0.08 µM) of 0.32. The relative viability ([3]; first compound 2.53 µM) was 0.34, the relative viability ([3]; first compound 8 µM) was 0.152 and the relative viability ([4]; first compound 0.08 µM) was 0.46. For the same cell line, the relative viability ([4]; first compound 0.253 µM) was 0.386, the relative viability ([4]; first compound 2.53 µM) was 0.454 and the relative viability ([4]; first compound 8 µM) was 0.266. It also gave a relative viability ([5]; first compound 0.08 µM) of 0.596, a relative viability ([5]; first compound 0.253 µM) of 0.57 and a relative viability ([5]; first compound 2.53 µM) of 0.535. It also gave a relative viability ([5]; first compound 8 µM) of 0.249.
